Tests used:
KAI3 (IL-2 2.5 ng/mL) [1] = experiment: percent inhibition of viability; higher = more inhibition; details: 72 h
[2] = system: normal primary NK cells, pool 1 (3 donors), resting (IL-2 0 ng/mL); experiment: as above; details: 72 h
SNK-6 (IL-2 2.5 ng/mL) [3] = experiment: as above; details: 72 h
IMC-1 (IL-2 20 ng/mL) [4] = experiment: as above; details: 72 h
NK-YS (IL-2 2.5 ng/mL) [5] = experiment: as above; details: 72 h
NKL (IL-2 2.5 ng/mL) [6] = experiment: as above; details: 72 h
NK-92 (IL-2 2.5 ng/mL) [7] = experiment: as above; details: 72 h
[8] = system: normal primary NK cells, pool 3 (3 donors) (IL-2 2.5 ng/mL); experiment: as above; details: 72 h
YT (IL-2 2.5 ng/mL) [9] = experiment: as above; details: 72 h
[10] = system: normal primary NK cells, pool 1 (3 donors) (IL-2 2.5 ng/mL); experiment: as above; details: 72 h
DERL-7 (IL-2 2.5 ng/mL) [11] = experiment: as above; details: 72 h
KHYG-1 (IL-2 2.5 ng/mL) [12] = experiment: as above; details: 72 h
[13] = system: normal primary NK cells, pool 2 (3 donors) (IL-2 2.5 ng/mL); experiment: as above; details: 72 h
[14] = system: normal NK cells expanded with K562-aAPC; experiment: as above; details: 72 h, IL-2 2.5 ng/mL
Description: (§1)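 Drug sensitivity and resistance testing on K562-aAPC-expanded normal NK cells: 5 concentrations (10-fold steps over a 10,000-fold range), 72 h at 37 °C, viability by CellTiter-Glo normalised to DMSO and benzethonium chloride controls; DSS from the fitted curve.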

KAI3 (IL-2 2.5 ng/mL) [15] = experiment: drug sensitivity score (DSS) (DSS units); higher = more sensitive; extreme values may be limits of the assay; details: 72 h
[16] = system: normal primary NK cells, pool 1 (3 donors), resting (IL-2 0 ng/mL); experiment: as above; details: 72 h
SNK-6 (IL-2 2.5 ng/mL) [17] = experiment: as above; details: 72 h
IMC-1 (IL-2 20 ng/mL) [18] = experiment: as above; details: 72 h
NK-YS (IL-2 2.5 ng/mL) [19] = experiment: as above; details: 72 h
NKL (IL-2 2.5 ng/mL) [20] = experiment: as above; details: 72 h
NK-92 (IL-2 2.5 ng/mL) [21] = experiment: as above; details: 72 h
[22] = system: normal primary NK cells, pool 3 (3 donors) (IL-2 2.5 ng/mL); experiment: as above; details: 72 h
YT (IL-2 2.5 ng/mL) [23] = experiment: as above; details: 72 h
[24] = system: normal primary NK cells, pool 1 (3 donors) (IL-2 2.5 ng/mL); experiment: as above; details: 72 h
DERL-7 (IL-2 2.5 ng/mL) [25] = experiment: as above; details: 72 h
KHYG-1 (IL-2 2.5 ng/mL) [26] = experiment: as above; details: 72 h
[27] = system: normal primary NK cells, pool 2 (3 donors) (IL-2 2.5 ng/mL); experiment: as above; details: 72 h
[28] = system: normal NK cells expanded with K562-aAPC; experiment: as above; details: 72 h; IL-2 2.5 ng/mL
Description: as §1

COc1cc2c(cc1O)CC[C@@H]1[C@@H]2CC[C@]2(C)[C@@H](O)CC[C@@H]12 [2-methoxyestradiol] (max concentration tested 10000 nM)
percent inhibition of viability [%]
Details	1 nM	10 nM	100 nM	1000 nM	10000 nM
DERL-7 (IL-2 2.5 ng/mL) [11]	-1.82	1.54	2.89	73.2	98.9
IMC-1 (IL-2 20 ng/mL) [4]	-3.9	0.72	-4.99	63.4	98.5
KAI3 (IL-2 2.5 ng/mL) [1]	-6.2	-3.7	1.79	50	57.4
KHYG-1 (IL-2 2.5 ng/mL) [12]	-6.84	-2.25	-0.37	97.8	97.9
NK-92 (IL-2 2.5 ng/mL) [7]	-11.8	-5.92	24.8	96.2	92.4
NK-YS (IL-2 2.5 ng/mL) [5]	-6.42	-2.65	5.43	77.6	66
NKL (IL-2 2.5 ng/mL) [6]	-3.96	-6.41	12.5	85.8	90.6
SNK-6 (IL-2 2.5 ng/mL) [3]	15.9	5.08	4.83	72.8	66.2
YT (IL-2 2.5 ng/mL) [9]	-5.93	2.82	1.11	86.5	92.7
[2]	-17.5	-7.16	17.8	3.53	29.8
[8]	-10.4	-14	-8.74	-10.1	2.72
[10]	-5.08	0.22	-0.63	10	19.8
[13]	-5.21	-10.5	-5.24	0.1	16.3
[14]	-7.6	-11.6	-10.8	9.36	53

Details	drug sensitivity score
DERL-7 (IL-2 2.5 ng/mL) [25]	14.2
IMC-1 (IL-2 20 ng/mL) [18]	12.8
KAI3 (IL-2 2.5 ng/mL) [15]	9.37
KHYG-1 (IL-2 2.5 ng/mL) [26]	17.6
NK-92 (IL-2 2.5 ng/mL) [21]	21.1
NK-YS (IL-2 2.5 ng/mL) [19]	15
NKL (IL-2 2.5 ng/mL) [20]	17.5
SNK-6 (IL-2 2.5 ng/mL) [17]	14
YT (IL-2 2.5 ng/mL) [23]	15.9
[16]	1.87
[22]	0
[24]	1.6
[27]	0.33
[28]	4.38

From the supplement of paper PMC5908809
